Earlier results on 1 molecule are cited in patent US20220265566A1, “ATOVAQUONE NANOPARTICULATE COMPOSITIONS” (Tulex Pharmaceuticals Inc., priority 2018, published 2022).

Consider `O=C1C(O)=C([C@H]2CC[C@H](c3ccc(Cl)cc3)CC2)C(=O)c2ccccc21` [ATQ, trans-2-[4-(4-chlorophenyl)cyclohexyl]-3-hydroxy-1,4-naphthalenedione], for which the Solubility in water entry is given as “practically insoluble in water”.
